{"source": "patent US9856234B2", "about": "“Heterocyclic compounds and their use as glycogen synthase kinase 3 inhibitors” (ABBVIE INC., priority 2006, dated 2018)", "target": "T1, human Glycogen Synthase Kinase-3 beta (hGSK-3β) (Homo sapiens, UniProt P49841)", "T1 construct": "purchased Upstate cell signaling solutions", "T1 sequence (P49841 whole entry)": "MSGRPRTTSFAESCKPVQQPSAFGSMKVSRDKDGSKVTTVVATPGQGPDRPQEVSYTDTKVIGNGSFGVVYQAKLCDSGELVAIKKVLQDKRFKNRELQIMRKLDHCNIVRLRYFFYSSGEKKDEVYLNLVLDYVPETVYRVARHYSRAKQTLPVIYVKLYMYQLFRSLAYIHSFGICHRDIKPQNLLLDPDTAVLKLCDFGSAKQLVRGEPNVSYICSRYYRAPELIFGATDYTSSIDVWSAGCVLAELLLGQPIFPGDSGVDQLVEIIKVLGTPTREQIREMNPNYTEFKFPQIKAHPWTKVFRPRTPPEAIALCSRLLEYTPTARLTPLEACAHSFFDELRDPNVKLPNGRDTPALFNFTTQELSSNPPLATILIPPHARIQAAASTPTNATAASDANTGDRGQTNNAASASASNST", "assay": "Biochemical hGSK-3Beta assay (33P-ATP phosphorylation of biotinylated peptide substrate)", "conditions": "10 μM ATP, 30 minutes at room temperature; read-out: GSK-3β IC50", "protocol": "Methods—Biochemical hGSK-3Beta Assay\nCompounds were tested for their ability to inhibit human Glycogen Synthase Kinase-3 beta (hGSK-3β) to phosphorylate biotin-[…](pS)EDEEE. Compounds were incubated with 0.5 μCi 33P-ATP, 10 μM ATP, 0.0125 U hGSK-3β (Upstate cell signaling solutions) and 1 μM substrate (biotin-[…](pS)EDEEE) in 50 mM HEPES, 10 mM MgCl2, […], 1 mM DTT, 0.0075% Triton, 2% DMSO (total volume 50 μL) for 30 minutes at room temperature. The incubation was stopped by addition of an equal volume of 100 mM EDTA, 4M NaCl. 80 μL of this mixture was added to streptavidin-coated Flashplates (PerkinElmer). Following a wash step, 33P incorporation was quantified on a MicroBeta microplate liquid scintillation counter (Perkin Elmer). IC50's were determined by fitting a sigmoidal dose-response curve to the counts obtained at the different concentrations in Graph Pad Prism."}
{"compound": "O=C(Nc1cnccn1)Nc1cncc2ccccc12", "note": "[Example 6, 1-Isoquinolin-4-yl-3-pyrazin-2-yl-urea]", "values": [{"measurement": "IC50", "value": "100 to 10000", "unit": "nM"}]}
{"compound": "O=C(Nc1cnccn1)Nc1cccc2ccccc12", "note": "[Example 7, 1-Naphthalen-1-yl-3-pyrazin-2-yl-urea]", "values": [{"measurement": "IC50", "value": "> 10000", "unit": "nM"}]}
{"compound": "1-(7-Bromoquinolin-4-yl)-3-(pyrazin-2-yl)urea [Example 28]", "values": [{"measurement": "IC50", "value": "< 100", "unit": "nM"}]}
{"compound": "1-(8-Bromoquinolin-4-yl)-3-(pyrazin-2-yl)urea [Example 37]", "values": [{"measurement": "IC50", "value": "< 100", "unit": "nM"}]}
{"compound": "O=C(Nc1ccccn1)Nc1ccnc2cc(C(F)(F)F)ccc12", "note": "[Example 29, 1-(Pyridin-2-yl)-3-(7-(trifluoromethyl)quinolin-4-yl)urea]", "values": [{"measurement": "IC50", "value": "100 to 10000", "unit": "nM"}]}
{"compound": "O=C(Nc1cnccn1)Nc1ccnc2c(I)cccc12", "note": "[Example 34, 1-(8-Iodoquinolin-4-yl)-3-(pyrazin-2-yl)urea]", "values": [{"measurement": "IC50", "value": "< 100", "unit": "nM"}]}
{"compound": "O=C(Nc1cnccn1)Nc1cccc2ccncc12", "note": "[Example 19, 1-Isoquinolin-8-yl-3-pyrazin-2-yl-urea]", "values": [{"measurement": "IC50", "value": "100 to 10000", "unit": "nM"}]}
{"compound": "O=C(Nc1cnccn1)Nc1c(Br)cnc2ccccc12", "note": "[Example 35, 1-(3-Bromoquinolin-4-yl)-3-(pyrazin-2-yl)urea]", "values": [{"measurement": "IC50", "value": "100 to 10000", "unit": "nM"}]}
{"compound": "O=C(Nc1cnccn1)Nc1cccc2ncccc12", "note": "[Example 21, 1-Pyrazin-2-yl-3-quinolin-5-yl-urea]", "values": [{"measurement": "IC50", "value": "100 to 10000", "unit": "nM"}]}
{"compound": "O=C(Nc1cnc2ccccc2c1)Nc1cnccn1", "note": "[Example 40, 1-(Pyrazin-2-yl)-3-(quinolin-3-yl)urea, reference compound]", "values": [{"measurement": "IC50", "value": "> 10000", "unit": "nM"}]}
{"compound": "O=C(Nc1cnccn1)Nc1c2c(nc3ccccc13)CCCC2", "note": "[Example 5, 1-Pyrazin-2-yl-3-(1,2,3,4-tetrahydro-acridin-9-yl)-urea]", "values": [{"measurement": "IC50", "value": "100 to 10000", "unit": "nM"}]}
{"compound": "1-(Pyrazin-2-yl)-3-(pyridin-4-yl)urea [Example 24]", "values": [{"measurement": "IC50", "value": "100 to 10000", "unit": "nM"}]}
{"compound": "O=C(Nc1cnccn1)Nc1cccc2cnccc12", "note": "[Example 20, 1-Isoquinolin-5-yl-3-pyrazin-2-yl-urea]", "values": [{"measurement": "IC50", "value": "100 to 10000", "unit": "nM"}]}
{"compound": "1-Methyl-1-pyrazin-2-yl-3-(6-trifluoromethyl-quinolin-4-yl)-urea [Example 22]", "values": [{"measurement": "IC50", "value": "> 10000", "unit": "nM"}]}
{"compound": "O=C(Nc1cnccn1)Nc1ccnc2ccc(Br)cc12", "note": "[Example 2, 1-(6-Bromo-quinolin-4-yl)-3-pyrazin-2-yl-urea]", "values": [{"measurement": "IC50", "value": "< 100", "unit": "nM"}]}
{"compound": "O=C(Nc1cnccn1)Nc1ccnc2cc(I)ccc12", "note": "[Example 27, 1-(7-Iodoquinolin-4-yl)-3-(pyrazin-2-yl)urea]", "values": [{"measurement": "IC50", "value": "< 100", "unit": "nM"}]}
{"compound": "O=C(Nc1cnccn1)Nc1cc(C(F)(F)F)nc2ccccc12", "note": "[Example 1, 1-Pyrazin-2-yl-3-(2-trifluoromethyl-quinolin-4-yl)-urea]", "values": [{"measurement": "IC50", "value": "100 to 10000", "unit": "nM"}]}
{"compound": "Cc1cc(NC(=O)Nc2cnccn2)c2ccccc2n1", "note": "[Example 12, 1-(2-Methyl-quinolin-4-yl)-3-pyrazin-2-yl-urea]", "values": [{"measurement": "IC50", "value": "100 to 10000", "unit": "nM"}]}
{"compound": "O=C(Nc1ccccc1)Nc1ccnc2ccccc12", "note": "[Example 30, 1-Phenyl-3-(quinolin-4-yl)urea, reference compound]", "values": [{"measurement": "IC50", "value": "> 10000", "unit": "nM"}]}
{"compound": "O=C(Nc1cnccn1)Nc1ccnc2c(Cl)cccc12", "note": "[Example 32, 1-(8-Chloroquinolin-4-yl)-3-(pyrazin-2-yl)urea]", "values": [{"measurement": "IC50", "value": "< 100", "unit": "nM"}]}
{"compound": "Cc1cccc2c(NC(=O)Nc3cnccn3)ccnc12", "note": "[Example 31, 1-(8-Methylquinolin-4-yl)-3-(Pyrazin-2-yl)urea]", "values": [{"measurement": "IC50", "value": "< 100", "unit": "nM"}]}
